The record followed here is US5652249A, “Method of treating depression” (Nippon Shinyaku Co., Inc., priority 1993, dated 1997).

Data set [1] is described as follows: Acute toxicity testing, oral, mice. Further details: species or system mouse (male ddy-strain). The following applies: mouse, in vivo, male ddy mice, 2 weeks observation, probit method. On the procedure: (1) Groups of five male ddy-strain mice aged 6-7 weeks were used. The animals were fasted for 16-18 hours (from the previous day) and then orally given the test compound. The LD50 values were calculated by the probit method based on the mortality observed within the succeeding period of 2 weeks.

For data set [2], the system named is rats. The data set is described as follows: Rat forced swimming test (immobility time). It is filed as in vivo, rat (male Wistar). The following applies: for Immobility Time (mean ± S.E.): N=10; for Effect on the immobility time in the forced swimming test (in words): Dunnett's test vs control. As for the experimental part:
(§1) Particularly the forced swimming test has been used most widely in the evaluation of antidepressant drugs in animals. Reportedly the immobility time-shortening activity of an antidepressant drug as assayed by this test is highly correlated with the clinical efficacy of the drug in man (F. Borsini and A. Meli, 1988).
Five-week old male Wistar rats were used. A cylindrical vessel measuring 18 cm in diameter and 40 cm deep was filled with 25° C. of water to the level of 17 cm from the bottom, and the rat was forced to swim in the water for 15 minutes (Session I). After 24 hours, the rat was put again in the vessel for 5 minutes and the duration of time the rat remained motionless without swimming was determined (Session II). The drug was orally administered twice, viz. at completion of Session I and 1 hr before the start of Session II. The drug was suspended in 0.5% methylcellulose (MC) solution for the administration. The control group was orally given the same volume of 0.5% MC solution. Compound No. 2 was used as the test drug. As reference drugs, desipramine, which is a representative antidepressant, and aniracetam and idebenone, both of which are enhancers of cerebral circulation and metabolism, were used. The statistical significance of between groups differences was analyzed by Dunnett's test.

The test system of data set [3] is rats. The data set is described as follows: Rat learned helplessness test (escape failures). It is filed as in vivo. The following applies: for No. of escape failures (mean ± S.E.): oral once daily for 10 days, ECS group, 40 avoidance tasks, N=10.
From the text: as §1
The rat was orally administered with the drug once daily for 10 consecutive days. On days 8-10 of administration, the rat was placed in a shuttle box in which it received 100 unescapable electroconvulsive shocks (ECS) daily. The day after the last ECS session, the active avoidance task was given 40 times and the number of failures to escape was recorded. Compound No. 2 was used as the test drug. As a reference drug, desipramine was used.

The nature of data set [4]: Acute toxicity testing, oral, rats. The following applies: rat, in vivo, male SD rats, two-week observation, probit method. More on the design: species or system rat (male SD-strain). As for the experimental part: (2) Groups of five male SD-strain rats weighing 280-360 g were used. The animals were fasted for 16-18 hours (from the previous day) and then orally given the test compound. The LD50 values were calculated by the probit method based on the mortality observed within the succeeding two-week period.

[5] abbreviates: 1 mg/kg, oral twice, *p < 0.01 vs control.
The mark [6] stands for this setting: 3 mg/kg, oral twice, *p < 0.01 vs control.
Setting [7] is: 10 mg/kg, oral twice, *p < 0.01 vs control.
The mark [8] stands for this setting: 30 mg/kg, oral twice, *p < 0.01 vs control.
Where [9] appears, read: 100 mg/kg, oral twice, *p < 0.01 vs control.

The term LD50 denotes the dose expected to kill half of the subjects tested. Low values mean greater toxicity, high ones lower toxicity. Consider `O=C1CC[C@H](C(=O)N2CCCCC2)N1` [Compound No. 2, D-(+)-1-(2-Pyrrolidone-5-carbonyl)piperidine], for which the LD50 at 336 h was 4160 mg/kg in data set [1] and not below 5000 mg/kg in data set [4]. Further, the “Immobility Time (mean ± S.E.)” value in the data set on rats [2] (0.3 mg/kg, oral twice (after Session I and 1 hr before Session II)) was determined as 153.0 ± 17.2 s; in the data set with rats [2] (setting [5]) it was 119.4 ± 11.0 s; in the data set on rats [2] (setting [6]), 82.2 ± 18.1 s; with rats [2] (setting [7]), 93.7 ± 13.4 s; in the data set with rats [2] (setting [8]) it was 61.3 ± 8.5 s; in the data set on rats [2] (setting [9]), 53.8 ± 12.6 s. In addition, the “No. of escape failures (mean ± S.E.)” value worked out at 20.20 ± 4.89 in the data set with rats [3] (1 mg/kg); 13.60 ± 4.15 with rats [3] (3 mg/kg); 0.90 ± 0.69 in the data set on rats [3] (10 mg/kg, *p < 0.01).

With `COc1ccc(C(=O)N2CCCC2=O)cc1` [aniracetam], the figures for the “Immobility Time (mean ± S.E.)” value with rats [2] (setting [7]), in the data set with rats [2] (setting [8]) and in the data set on rats [2] (setting [9]) were 168.9 ± 18.0 s, 162.6 ± 14.5 s and 175.6 ± 13.8 s, respectively. Moreover, the “Effect on the immobility time in the forced swimming test (in words)” value (from here on “Effect on the immobility time”) in the data set with rats [2] (oral twice) is “did not influence the immobility time”.

As to `CNCCCN1c2ccccc2CCc2ccccc21` [desipramine], the “Immobility Time (mean ± S.E.)” value came to 134.2 ± 20.8 s in the data set on rats [2] (setting [5]); 83.2 ± 16.1 s in the data set on rats [2] (setting [6]); 54.7 ± 15.8 s with rats [2] (setting [7]); 34.8 ± 12.2 s in the data set on rats [2] (setting [8]); 41.8 ± 9.8 s in the data set on rats [2] (50 mg/kg, oral twice, *p < 0.01 vs control). Further, in the data set with rats [2] (oral twice), the “Effect on the immobility time” value was “shortened the immobility time significantly and dose dependently at 3 mg/kg and higher doses”. In addition, the “No. of escape failures (mean ± S.E.)” value in the data set on rats [3] (1 mg/kg) is reported as 32.10 ± 2.66; in the data set on rats [3] (3 mg/kg) it was 19.00 ± 5.65; with rats [3] (10 mg/kg, *p < 0.01), 0.60 ± 0.27. Besides, the “Effect on failure to escape in the learned helplessness test (in words)” value in the data set on rats [3] (10 mg/kg, oral) is “significant inhibitory effects on this failure to escape at 10 mg/kg”.

Take `COC1=C(OC)C(=O)C(CCCCCCCCCCO)=C(C)C1=O` [idebenone]: the “Immobility Time (mean ± S.E.)” value was determined as 178.2 ± 17.6 s with rats [2] (setting [8]); 154.4 ± 17.4 s in the data set on rats [2] (setting [9]); 180.9 ± 13.9 s with rats [2] (300 mg/kg, oral twice). Moreover, the “Effect on the immobility time” value in the data set with rats [2] (oral twice) is reported as “did not influence the immobility time”.
